Experimental data: article PMC3402541, “Guanidylation and Tail Effects in Cationic Antimicrobial Lipopeptoids” (PLoS ONE, 2012)
In brackets after ≈: the same amount, converted by molar mass. Where a SMILES comes first, the peptide text is derived from it. [ ]: non-standard residue; d: D form. The star is where a group is joined. Myristoyl = CCCCCCCCCCCCCC(=O)*; Nlys = NCCCCNCC(=O)O

Key:
E. faecium ATCC 27270 = assay type: cell-based; conditions: ATCC 27270, 24 h
Protocol: (§1) Antimicrobial activity of the purified lipopeptoids was determined without replication against a panel of clinically relevant and standard reference bacterial strains according to CLSI macrobroth standards. Stock solutions at 512 µg/mL were prepared in water, with DMSO as needed, and testing was performed in glass test tubes using Muller-Hinton broth and bacteria adjusted to 5 × 10^5 CFU/mL. Bacteria were incubated with the lipopeptoid of interest for 24 hr at 37°C prior to reading.
(§2) The bacteria Staphylococcus aureus ATCC 29213, methicillin-resistant S. aureus ATCC 33592, Staphylococcus epidermidis ATCC 14990, Enterococcus faecalis ATCC 29212, E. faecium ATCC 27270, Streptococcus pneumoniae ATCC 49619, Escherichia coli ATCC 25922, Pseudomonas aeruginosa ATCC 27853, and Klebsiella pneumoniae ATCC 13883 were acquired from the American Type Culture Collection (ATCC) and used as quality controls. The clinical strains methicillin-resistant S. epidermidis (MRSE) CAN-ICU 61589, E. coli CAN-ICU 61714, E. coli CAN-ICU 63074, P. aeruginosa CAN-ICU 62308, Stenotrophomonas maltophilia CAN-ICU 62584, Acinetobacter baumannii CAN-ICU 63169 were obtained from hospitals across Canada as part of the CAN-ICU studies, while methicillin-susceptible S. epidermidis (MSSE) 81388 was obtained from the 2008 CANWARD study.
(§3) After subculturing the relevant bacteria twice from frozen stock, in vitro activities of the antimicrobials were determined by macrobroth dilution methodology in accordance with the Clinical and Laboratory Standards Institute (CLSI) guidelines (3). The MICs were determined using glass test tubes (2 mL/tube) containing doubling antimicrobial dilutions of cation adjusted Mueller-Hinton broth inoculated to achieve a final concentration of approximately 5 x 10^5 CFU/mL, incubated in ambient air for 24 hr prior to reading. Colony counts were performed periodically to confirm inocula. The ATCC organisms […] ATCC 49619, Staphylococcus aureus ATCC 29213, Enterococcus faecalis ATCC 29212, Escherichia coli ATCC 25922, and Pseudomonas aeruginosa ATCC 27853 were used as quality control and to allow easy comparison to previously tested antimicrobials. Each test in this series was performed without replication. In our experience with cationic amphiphiles the results are accurate to within a single doubling.

[1] = tested on: S. maltophilia CAN-ICU 62584; assay type: cell-based, Stenotrophomonas maltophilia; conditions: CAN-ICU 62584, 24 h
Protocol: as §1, §2, §3

E.coli ATCC 25922 = assay type: cell-based, Escherichia coli; conditions: ATCC 25922, 24 h
Protocol: as §1, §2, §3

E.coli CAN-ICU 63074 = assay type: cell-based, Escherichia coli; conditions: CAN-ICU 63074, 24 h
Protocol: as §1, §2, §3

E.coli CAN-ICU 61714 = assay type: cell-based, Escherichia coli; conditions: CAN-ICU 61714, 24 h
Protocol: as §1, §2, §3

ovine erythrocytes = test: Haemolytic assay; assay type: cell-based, sheep; conditions: ovine erythrocytes in Tris buffered saline, 30 minutes, absorbance of supernatant at 540 nm
Protocol: Mammalian cell toxicity was determined by measuring lysis of ovine erythrocytes, a standard model for human cell toxicity. Cells were prewashed with Tris buffered saline and then incubated with a variety of lipopeptoid concentrations for 30 minutes. Following centrifugation, lysis was evaluated by testing the absorbance of the solution at 540 nm, with 0.5% NH4OH used as a positive control.
Toxicity to mammalian cells was determined using a sheep red blood cell (erythrocyte) haemolytic assay (4). Erythrocytes were washed and resuspended in Tris buffered saline prior to use, at a concentration of 1.46 - 4.5 x 10^9 cells/mL (on average 3.08 x 10^9 cells/mL). The cell suspension was diluted with varying concentrations of antimicrobials, from 50 μg/mL to 1 mg/mL and incubated for thirty minutes (final erythrocyte concentration 4.08 x 10^8 cells/mL). The samples were centrifuged following treatment and the absorbance of the supernatant was measured at 540 nm. A solution of 0.5% […] was used as a positive control, with normal buffered solution as the negative control. The toxicity was assessed as a function of percent haemolysis.

MRSA ATCC 33592 = assay type: cell-based, methicillin-resistant S. aureus; conditions: ATCC 33592, 24 h
Protocol: as §1, §2, §3

S.aureus ATCC 29213 = assay type: cell-based, Staphylococcus aureus; conditions: ATCC 29213, 24 h
Protocol: as §1, §2, §3

P.aeruginosa ATCC 27853 = assay type: cell-based, Pseudomonas aeruginosa; conditions: ATCC 27853, 24 h
Protocol: as §1, §2, §3

[2] = tested on: P.aeruginosa CAN-ICU 62308; assay type: cell-based, Pseudomonas aeruginosa; conditions: CAN-ICU 62308, 24 h
Protocol: as §1, §2, §3

K.pneumoniae ATCC 13883 = assay type: cell-based, Klebsiella pneumoniae; conditions: ATCC 13883, 24 h
Protocol: as §1, §2, §3

[3] = tested on: A. baumannii CAN-ICU 63169; assay type: cell-based, Acinetobacter baumannii; conditions: CAN-ICU 63169, 24 h
Protocol: as §1, §2, §3

E. faecalis ATCC 29212 = assay type: cell-based, Enterococcus faecalis; conditions: ATCC 29212, 24 h
Protocol: as §1, §2, §3

MSSE 81388 CANWARD 2008 = assay type: cell-based, methicillin-susceptible S. epidermidis; conditions: 24 h
Protocol: as §1, §2, §3

MRSE CAN-ICU 61589 = assay type: cell-based, methicillin-resistant S. epidermidis; conditions: CAN-ICU 61589, 24 h
Protocol: as §1, §2, §3

S.pneumoniae ATCC 49619 = assay type: cell-based, Streptococcus pneumoniae; conditions: ATCC 49619, 24 h
Protocol: as §1, §2, §3

SMILES | MIC E. faecium (E. faecium ATCC 27270) [µg/mL] | MIC E. faecium in the presence of 4% bovine serum albumin (E. faecium ATCC 27270) [µg/mL] | MIC S. maltophilia [1] [µg/mL] | MIC S. maltophilia in the presence of 4% bovine serum albumin [1] [µg/mL] | MIC E.coli (E.coli ATCC 25922) [µg/mL] | MIC E.coli in the presence of 4% bovine serum albumin (E.coli ATCC 25922) [µg/mL] | MIC E.coli (E.coli CAN-ICU 63074) [µg/mL] | MIC E.coli in the presence of 4% bovine serum albumin (E.coli CAN-ICU 63074) [µg/mL] | MIC E.coli (E.coli CAN-ICU 61714) [µg/mL] | MIC E.coli in the presence of 4% bovine serum albumin (E.coli CAN-ICU 61714) [µg/mL] | MIC MRSA (MRSA ATCC 33592) [µg/mL] | MIC MRSA in the presence of 4% bovine serum albumin (MRSA ATCC 33592) [µg/mL] | MIC S.aureus (S.aureus ATCC 29213) [µg/mL] | MIC S.aureus in the presence of 4% bovine serum albumin (S.aureus ATCC 29213) [µg/mL] | MIC P.aeruginosa (P.aeruginosa ATCC 27853) [µg/mL] | MIC P.aeruginosa in the presence of 4% bovine serum albumin (P.aeruginosa ATCC 27853) [µg/mL] | MIC P.aeruginosa [2] [µg/mL] | MIC P.aeruginosa in the presence of 4% bovine serum albumin [2] [µg/mL] | MIC K.pneumoniae (K.pneumoniae ATCC 13883) [µg/mL] | MIC K.pneumoniae in the presence of 4% bovine serum albumin (K.pneumoniae ATCC 13883) [µg/mL] | also measured
CCCCCCCCCCCCCC(=O)N(CCCCNC(=N)N)CC(=O)N(CCCCNC(=N)N)CC(=O)N(CCCCNC(=N)N)CC(N)=O [C14-NhargNhargNharg] | 16 (≈ 21.7 µM) | 256 | 256 (≈ 347 µM) | >512 | 64 (≈ 86.7 µM) | 512 | 64 (≈ 86.7 µM) | 512 | 64 (≈ 86.7 µM) | 512 | 16 (≈ 21.7 µM) | 512 | 16 (≈ 21.7 µM) | 256 | 256 (≈ 347 µM) | >512 | 128 (≈ 173 µM) | 512 | 256 (≈ 347 µM) | 512 | Percent haemolysis at 100µg/mL of compound (ovine erythrocytes): 20.34%; MIC A. baumannii [3]: 256 µg/mL (≈ 347 µM); MIC A. baumannii in the presence of 4% bovine serum albumin [3]: >512 µg/mL; MIC E. faecalis (E. faecalis ATCC 29212): 32 µg/mL (≈ 43.4 µM); MIC E. faecalis in the presence of 4% bovine serum albumin (E. faecalis ATCC 29212): 512 µg/mL; MIC MSSE (MSSE 81388 CANWARD 2008): 8 µg/mL (≈ 10.8 µM); MIC MSSE in the presence of 4% bovine serum albumin (MSSE 81388 CANWARD 2008): 512 µg/mL; MIC MRSE (MRSE CAN-ICU 61589): 16 µg/mL (≈ 21.7 µM); MIC MRSE in the presence of 4% bovine serum albumin (MRSE CAN-ICU 61589): 256 µg/mL; MIC S.pneumoniae (S.pneumoniae ATCC 49619): 64 µg/mL (≈ 86.7 µM); MIC S.pneumoniae in the presence of 4% bovine serum albumin (S.pneumoniae ATCC 49619): 256 µg/mL
CCCCCCCCCCCCCC(=O)N(CCCCN)CC(=O)NCC(=O)N(CCCCN)CC(N)=O [C14-NlysGNlys] (Myristoyl-[Nlys]-Gly-[Nlys]-NH2) | 64 (≈ 118 µM) | 512 | 512 (≈ 947 µM) | >512 | 128 (≈ 237 µM) | >512 | 128 (≈ 237 µM) | >512 | 128 (≈ 237 µM) | >512 | 32 (≈ 59.2 µM) | 512 | 32 (≈ 59.2 µM) | 512 | 256 (≈ 473 µM) | >512 | 512 (≈ 947 µM) | >512 | 256 (≈ 473 µM) | >512 | Percent haemolysis at 100µg/mL of compound (ovine erythrocytes): 2.90%; MIC A. baumannii [3]: 256 µg/mL (≈ 473 µM); MIC A. baumannii in the presence of 4% bovine serum albumin [3]: >512 µg/mL; MIC E. faecalis (E. faecalis ATCC 29212): 64 µg/mL (≈ 118 µM); MIC E. faecalis in the presence of 4% bovine serum albumin (E. faecalis ATCC 29212): >512 µg/mL; MIC MSSE (MSSE 81388 CANWARD 2008): 16 µg/mL (≈ 29.6 µM); MIC MSSE in the presence of 4% bovine serum albumin (MSSE 81388 CANWARD 2008): 512 µg/mL; MIC MRSE (MRSE CAN-ICU 61589): 32 µg/mL (≈ 59.2 µM); MIC MRSE in the presence of 4% bovine serum albumin (MRSE CAN-ICU 61589): 512 µg/mL; MIC S.pneumoniae (S.pneumoniae ATCC 49619): 256 µg/mL (≈ 473 µM); MIC S.pneumoniae in the presence of 4% bovine serum albumin (S.pneumoniae ATCC 49619): >512 µg/mL
CCCCCCCCCCC(=O)N(CCCCNC(=N)N)CC(=O)N(CCCCNC(=N)N)CC(=O)N(CCCCNC(=N)N)CC(N)=O [C11-NhargNhargNharg] | 256 (≈ 368 µM) | 512 | >512 | >512 | >512 | >512 | >512 | >512 | >512 | >512 | 128 (≈ 184 µM) | 512 | 128 (≈ 184 µM) | 512 | >512 | >512 | >512 | >512 | >512 | >512 | MIC A. baumannii [3]: >512 µg/mL; MIC A. baumannii in the presence of 4% bovine serum albumin [3]: >512 µg/mL; MIC E. faecalis (E. faecalis ATCC 29212): 512 µg/mL (≈ 736 µM); MIC E. faecalis in the presence of 4% bovine serum albumin (E. faecalis ATCC 29212): >512 µg/mL; MIC MSSE (MSSE 81388 CANWARD 2008): 64 µg/mL (≈ 92 µM); MIC MSSE in the presence of 4% bovine serum albumin (MSSE 81388 CANWARD 2008): 512 µg/mL; MIC MRSE (MRSE CAN-ICU 61589): 256 µg/mL (≈ 368 µM); MIC MRSE in the presence of 4% bovine serum albumin (MRSE CAN-ICU 61589): 512 µg/mL; MIC S.pneumoniae (S.pneumoniae ATCC 49619): 512 µg/mL (≈ 736 µM); MIC S.pneumoniae in the presence of 4% bovine serum albumin (S.pneumoniae ATCC 49619): >512 µg/mL
